Data published in patent publication US20150105252A1, “SUBSTITUTED PYRAZOLES AS HERBICIDES” (E I DU PONT DE NEMOURS AND COMPANY, priority 2013, published 2015).

Legend:
morningglory = assay: Test A postemergence; format: in vivo, Ipomoea spp.
In short: (§1)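 Seeds were sown in a loam soil–sand blend and given a directed soil spray preemergence; postemergence plants at 2–10 cm, one- to two-leaf stage, were sprayed with compound in non-phytotoxic solvent with surfactant. After about 10 days in a greenhouse, injury was visually rated against untreated controls (0 = no effect, 100 = complete control).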

lambsquarters = assay: Test C postemergence; format: in vivo, Chenopodium album; conditions: for Plant response rating, Lambsquarters: postemergence
Description: (§2) Seeds of plant species selected from blackgrass (Alopecurus myosuroides), ryegrass, Italian (Italian ryegrass, Lolium multiflorum), wheat (winter wheat, Triticum aestivum), galium (catchweed bedstraw, Galium aparine), corn (Zea mays), crabgrass, large (large crabgrass, Digitaria sanguinalis), foxtail, giant (giant foxtail, Setaria faberii), johnsongrass (Sorghum halepense), lambsquarters (Chenopodium album), morningglory (Ipomoea coccinea), nutsedge, yellow (yellow nutsedge, Cyperus esculentus), pigweed (redroot pigweed, Amaranthus retroflexus), ragweed (common ragweed, Ambrosia elation), soybean (Glycine max), barnyardgrass (Echinochloa crus-galli), oilseed rape (Brassica napus), waterhemp (common waterhemp, Amaranthus rudis), oat, wild (wild oat, Avena fatua), kochia (Kochia scoparia), Surinam grass (Brachiaria decumbens), foxtail, green (green foxtail, Setaria viridis), goosegrass (Eleusine indica), bromegrass, downy (downy bromegrass, Bromus tectorum), nightshade (eastern black nightshade, Solanum ptycanthum), cocklebur (common cocklebur, Xanthium strumarium), cupgrass, woolly (woolly cupgrass, Eriochloa villosa), bermudagrass (Cynodon dactylon), sunflower, (common oilseed sunflower, Helianthus annuus), Russian thistle (Salsola kali), and velvetleaf (Abutilon theophrasti) were planted into a blend of loam soil and sand and treated preemergence with test chemicals formulated in a non-phytotoxic solvent mixture which included a surfactant.
(§3) At the same time, plants selected from these crop and weed species and also chickweed (common chickweed, Stellaria media), canarygrass (littleseed canarygrass, Phalaris minor), and deadnettle (henbit deadnettle, Lamium amplexicaule), were planted in pots containing Redi-Earth® planting medium (Scotts Company, 14111 Scottslawn Road, Marysville, Ohio 43041) comprising spaghnum peat moss, vermiculite, wetting agent and starter nutrients and treated with postemergence applications of test chemicals formulated in the same manner. Plants ranged in height from 2 to 18 cm (1- to 4-leaf stage) for postemergence treatments. Treated plants and controls were maintained in a greenhouse for 13 to 15 days, after which time all species were compared to controls and visually evaluated. Plant response ratings, summarized in Table C, are based on a scale of 0 to 100 where 0 is no effect and 100 is complete control. A dash (-) response means no test result.

corn [1] = assay: Test A postemergence; format: in vivo, Zea mays
In short: as §1

velvetleaf [2] = assay: Test C postemergence; format: in vivo, Abutilon theophrasti; conditions: postemergence
Description: as §2, §3

foxtail, giant = assay: Test A postemergence; format: in vivo, Setaria faberii
In short: as §1

wheat [3] = assay: Test A preemergence; format: in vivo, Triticum aestivum
In short: as §1

velvetleaf [4] = assay: Test A postemergence; format: in vivo, Abutilon theophrasti
In short: as §1

soybean [5] = assay: Test C postemergence; format: in vivo, Glycine max; conditions: postemergence
Description: as §2, §3

crabgrass, large = assay: Test A postemergence; format: in vivo, Digitaria sanguinalis
In short: as §1

wheat [6] = assay: Test C postemergence; format: in vivo, Triticum aestivum; conditions: postemergence
Description: as §2, §3

ragweed [7] = assay: Test C postemergence; format: in vivo, Ambrosia elation; conditions: postemergence
Description: as §2, §3

corn [8] = assay: Test C postemergence; format: in vivo, Zea mays; conditions: for Plant response rating, Corn: postemergence
Description: as §2, §3

pigweed = assay: Test C preemergence; format: in vivo, Amaranthus retroflexus; conditions: preemergence
In short: (§4)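 In this greenhouse assay, seeded soil (loam plus sand) or emerged seedlings in peat-vermiculite medium were treated with formulated compound. Roughly two weeks later (13–15 days), each species was scored visually relative to controls, from 0 for no effect to 100 for complete control.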

ragweed [9] = assay: Test C preemergence; format: in vivo, Ambrosia elation; conditions: preemergence
In short: as §4

soybean [10] = assay: Test C preemergence; format: in vivo, Glycine max; conditions: preemergence
In short: as §4

oilseed rape = assay: Test C preemergence; format: in vivo, Brassica napus; conditions: preemergence
Description: as §2, §3

[11] = Postemergence, 1000 g ai/ha, visual rating after approx. 10 days, 0 to 100 scale (0 no effect, 100 complete control)
[12] = Postemergence, 31 g ai/ha, scale 0 to 100
[13] = 250 g ai/ha, scale 0 to 100 (0 no effect, 100 complete control)
[14] = 62 g ai/ha, scale 0 to 100, 0 no effect, 100 complete control
[15] = 125 g ai/ha, scale 0 to 100, 0 no effect, 100 complete control
[16] = 31 g ai/ha, visual rating, scale 0 to 100 (0 no effect, 100 complete control), 13 to 15 days
[17] = 62 g ai/ha, scale 0 to 100 (0 no effect, 100 complete control), 13 to 15 days
[18] = 125 g ai/ha, 13 to 15 days, scale 0 to 100, 0 = no effect, 100 = complete control
[19] = 250 g ai/ha, scale 0 to 100, 0 is no effect, 100 is complete control
[20] = Postemergence, 500 g ai/ha, 0 to 100 scale (0 no effect, 100 complete control)
[21] = postemergence, 125 g ai/ha, about 10 days, visual rating on 0 to 100 scale (0 no effect, 100 complete control)

SMILES: CCCNC(=O)c1cc(CC)n(Cc2cccc(OC(F)(F)F)c2)n1 [Compound 27]
- Morningglory plant response rating (morningglory; [11]): 100
- Lambsquarters plant response rating (lambsquarters; [12]): 50
- Plant response rating, Lambsquarters (lambsquarters; [13]): 65
- Plant response rating, Lambsquarters (lambsquarters; [14]): 50
- Plant response rating, Lambsquarters (lambsquarters; [15]): 50
- Corn plant response rating (corn [1]; [11]): 60
- Velvetleaf plant response rating (velvetleaf [2]; 62 g ai/ha, scale 0 to 100): 15
- Plant response rating, Velvetleaf (velvetleaf [2]; [13]): 45
- Plant response rating, Velvetleaf (velvetleaf [2]; [15]): 20
- Foxtail, Giant plant response rating (foxtail, giant; [11]): 70
- Wheat plant response rating (wheat [3]; Preemergence, 1000 g ai/ha, 0 to 100 scale, 0 no effect, 100 complete control): 20
- Velvetleaf plant response rating (velvetleaf [4]; [11]): 100
- Soybean plant response rating (soybean [5]; 62 g ai/ha, scale 0 to 100): 65
- Plant response rating, Soybean (soybean [5]; [13]): 75
- Plant response rating, Soybean (soybean [5]; [15]): 70
- Crabgrass, Large plant response rating (crabgrass, large; [11]): 80
- Wheat plant response rating (wheat [6]; 62 g ai/ha, scale 0 to 100): 15
- Plant response rating, Wheat (wheat [6]; [13]): 20
- Plant response rating, Wheat (wheat [6]; [15]): 15
- Plant response rating, Ragweed (ragweed [7]; [13]): 10
- Plant response rating, Ragweed (ragweed [7]; [14]): 0
- Plant response rating, Ragweed (ragweed [7]; [15]): 5
- Corn plant response rating (corn [8]; [12]): 10
- Plant response rating, Corn (corn [8]; [13]): 15
- Plant response rating, Corn (corn [8]; [14]): 10
- Plant response rating, Corn (corn [8]; [15]): 15

SMILES: O=C(NC1CC1)c1cc(CCF)n(Cc2ccnc(C(F)(F)F)c2)n1 [Compound 176]
- Pigweed plant response rating (pigweed; [16]): 100
- Pigweed plant response rating (pigweed; [17]): 100
- Plant response rating, Pigweed (pigweed; [18]): 100
- Pigweed plant response rating (pigweed; [19]): 100
- Morningglory plant response rating (morningglory; [20]): 90
- Morningglory plant response rating (morningglory; [21]): 90
- Ragweed plant response rating (ragweed [9]; [16]): 85
- Ragweed plant response rating (ragweed [9]; [17]): 100
- Plant response rating, Ragweed (ragweed [9]; [18]): 100
- Ragweed plant response rating (ragweed [9]; [19]): 95
- Corn plant response rating (corn [1]; [20]): 80
- Corn plant response rating (corn [1]; [21]): 40
- Foxtail, Giant plant response rating (foxtail, giant; [20]): 90
- Foxtail, Giant plant response rating (foxtail, giant; [21]): 80
- Wheat plant response rating (0 to 100 scale) (wheat [3]; preemergence, 125 g ai/ha, visual injury approx. 10 days after treatment): 20
- Wheat plant response rating (wheat [3]; preemergence, 500 g ai/ha, visual injury after approx. 10 days, 0 to 100 scale (0 no effect, 100 complete control)): 90
- Velvetleaf plant response rating (velvetleaf [4]; [20]): 90
- Velvetleaf plant response rating (velvetleaf [4]; [21]): 40
- Soybean plant response rating (soybean [10]; [16]): 30
- Soybean plant response rating (soybean [10]; [17]): 75
- Plant response rating, Soybean (soybean [10]; [18]): 98
- Soybean plant response rating (soybean [10]; [19]): 98
- Crabgrass, Large plant response rating (crabgrass, large; [20]): 90
- Crabgrass, Large plant response rating (crabgrass, large; [21]): 80
- Oilseed Rape plant response rating (oilseed rape; [16]): 90
- Oilseed Rape plant response rating (oilseed rape; [17]): 90
- Plant response rating, Oilseed Rape (oilseed rape; [18]): 95
- Oilseed Rape plant response rating (oilseed rape; [19]): 100
